Measurements from patent US20240018158A1, “BRM TARGETING COMPOUNDS AND ASSOCIATED METHODS OF USE” (Prelude Therapeutics Incorporated, priority 2020, published 2024).

Legend:
[1] = target: bromodomain of SMARCA2 protein (Homo sapiens (Human), UniProt P40337+P51531); assay: SMARCA2 bromodomain ternary binding TR-FRET assay (with VCB); conditions: with saturating VCB (5 μM); read-out: IC50 (SM 2_T) ternary binding potency in SMARCA2 FRET assay
Description: Recombinant bromodomain of SMARCA2 protein was purchased from Active Motif (Catalog #: 31449). VHL/ElonginB/ElonginC (VCB)N-terminal his6-tagged VHL (“his6” disclosed as SEQ ID NO: 4) (uniprot accession number P40337; M54-D213; […] […] […] (SEQ ID NO: 1)), Elongin B (Q15370; M1-K104; […] […] (SEQ ID NO: 2)), Elongin C (Q15369; M17-C112; […] […] (SEQ ID NO: 3)) complex were co-expressed and the complex was purified by Ni-affinity, TEV protease was then used to remove his6-tagged (SEQ ID NO: 4), and the complex was further purified by size-exclusion chromatography before use.
The inhibitory activity of compounds was evaluated in vitro using TR-FRET assay with white 384-well low volume microplate (PerkinElmer ProxiPlate Plus), in which the compound competes the same binding site with the ligand, and thus lead to dose-dependent TR-FRET signal reduction. The cooperativity of the compounds for ternary complex formation with E3 ligase was evaluated in the absence or presence of saturating concentrations of VCB. Testing compounds were dissolved in DMSO at […] and tested in 9-dose IC50. The assay mixture was prepared by mixing SMARCA2 (10 nM final), biotinylated probe (25 nM final), and assay buffer or VCB (5 μM) in 1×AlphaLISA Epigenetics Buffer (PerkinElmer AL008F) with 1 mM TCEP. The compounds in DMSO were added to each well in 3-fold serial dilution by dispenser (TECAN D300E) and incubate for 20 minutes at room temperature before addition of detection reagents, Lance Eu W1024 anti-6×His (0.6 nM final, PerkinElmer AD0110) and Streptavidin Surelight APC (6 nM final, PerkinElmer CR130-100). The plate was then sealed and further incubated at 4° C. overnight in dark, and then was read by Envision multimode plate reader (PerkinElmer, 2102-0010). The ratio of florescence signal at 665/620 was used in data analysis. Percentage inhibition was calculated by % inhibition=100×(FDMSO-F)/(FDMSO-FPC), in which FDMSO is DMSO control, and FPC is positive control. IC50 values were determined from dose response curve by fitting the percent inhibition against compound concentration using GraphPad Prism software.

[2] = target: SMARCA2 (Homo sapiens (Human), UniProt P51531); assay: In Cell Western SMARCA2 degradation in NCIH520 cells; assay type: cell-based; conditions: for DC50: read-out: DC50 (SM2_H520) SMARCA2 degradation potency
Sequence of SMARCA2 (P51531 whole entry): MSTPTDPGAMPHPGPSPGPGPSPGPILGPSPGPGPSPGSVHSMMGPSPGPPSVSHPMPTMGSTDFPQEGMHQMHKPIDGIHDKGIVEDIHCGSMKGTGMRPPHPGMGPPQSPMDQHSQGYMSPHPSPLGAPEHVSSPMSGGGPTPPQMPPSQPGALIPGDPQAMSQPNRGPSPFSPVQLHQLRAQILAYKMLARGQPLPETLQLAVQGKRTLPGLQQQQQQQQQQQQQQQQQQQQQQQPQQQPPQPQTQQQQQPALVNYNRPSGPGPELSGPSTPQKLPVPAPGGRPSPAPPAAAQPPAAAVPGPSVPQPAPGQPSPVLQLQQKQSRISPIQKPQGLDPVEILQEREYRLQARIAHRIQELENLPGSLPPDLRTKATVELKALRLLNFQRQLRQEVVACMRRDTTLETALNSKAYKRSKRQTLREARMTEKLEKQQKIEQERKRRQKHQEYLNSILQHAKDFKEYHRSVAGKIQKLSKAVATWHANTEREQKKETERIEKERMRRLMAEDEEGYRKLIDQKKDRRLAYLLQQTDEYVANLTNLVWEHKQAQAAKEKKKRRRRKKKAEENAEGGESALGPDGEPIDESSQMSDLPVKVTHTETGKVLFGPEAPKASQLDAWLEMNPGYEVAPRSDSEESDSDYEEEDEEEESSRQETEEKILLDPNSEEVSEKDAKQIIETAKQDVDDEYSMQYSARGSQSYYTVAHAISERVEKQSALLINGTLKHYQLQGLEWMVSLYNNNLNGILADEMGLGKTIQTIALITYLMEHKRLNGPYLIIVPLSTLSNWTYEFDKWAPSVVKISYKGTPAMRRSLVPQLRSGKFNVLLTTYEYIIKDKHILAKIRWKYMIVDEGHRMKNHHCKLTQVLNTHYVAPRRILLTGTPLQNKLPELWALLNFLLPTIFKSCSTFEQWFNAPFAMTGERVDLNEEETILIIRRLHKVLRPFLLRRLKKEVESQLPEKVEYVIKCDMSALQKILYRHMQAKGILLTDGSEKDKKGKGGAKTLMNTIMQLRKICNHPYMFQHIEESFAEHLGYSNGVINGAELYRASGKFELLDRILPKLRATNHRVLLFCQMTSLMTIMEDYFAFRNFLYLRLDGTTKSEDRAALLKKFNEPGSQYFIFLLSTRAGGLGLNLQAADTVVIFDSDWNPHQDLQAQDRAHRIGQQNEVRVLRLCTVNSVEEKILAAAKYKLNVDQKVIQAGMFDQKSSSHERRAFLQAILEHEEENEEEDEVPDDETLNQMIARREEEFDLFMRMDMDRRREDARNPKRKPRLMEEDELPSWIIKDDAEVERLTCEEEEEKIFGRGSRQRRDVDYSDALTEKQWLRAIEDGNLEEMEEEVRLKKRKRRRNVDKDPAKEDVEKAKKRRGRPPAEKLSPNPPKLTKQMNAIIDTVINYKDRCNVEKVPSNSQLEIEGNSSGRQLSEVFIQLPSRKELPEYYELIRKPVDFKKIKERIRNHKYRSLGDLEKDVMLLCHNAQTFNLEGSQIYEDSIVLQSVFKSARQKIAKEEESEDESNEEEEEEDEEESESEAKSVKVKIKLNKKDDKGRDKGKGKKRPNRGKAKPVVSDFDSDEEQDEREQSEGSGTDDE
Protocol: (§1) Compound titration and cell culture: Compounds were dissolved in DMSO to make 10 mM stock and 3-fold series dilutions were further conducted keeping the highest concentration 10 μM. NCIH1693 and NCIH520 cells were maintained in PRMI 1640 medium (Corning Cellgro, Catalog #:10-040-CV) supplemented with 10% v/v FBS (GE Healthcare, Catalog #: SH30910.03) by splitting 1:3 twice a week.
(§2) To determine SMACRA2 and SMARCA4 protein degradation DC50 values in NCIH1693 and NCIH520 cells by In Cell Western (ICW) analysis. Cells were trypsinized and 30 thousand cells/well were seeded into 384-well plates and were allowed to grow for 5 hours at 37° C. Eight-point, 3-fold serial dilutions of compounds from 10 mM stocks were added to the cells (using digital Dispenser D300-Tecan, keeping highest concentration 10 μM and normalizing with DMSO at the highest dispensed volume). Plates were incubated at 37° C. for overnight (maximum 18 hours). Cells incubated with DMSO was used as a vehicle control.
(§3) To perform In Cell Western, medium was removed from all the wells leaving cells attached to the surface. After removing the medium, cells were fixed within the plates with 40 μL of 4% formaldehyde by incubating at room temperature for 30 minutes, and then permeabilized with wash buffer (1×PBS with 0.1% Triton X-100) by washing the plate 5 times with 50 μL/well. Before labeling with primary antibodies, cells were blocked with 30 μL/well of blocking buffer (Licor Odyssey blocking buffer PBS #927-40000) for 30 minutes at room temperature. To measure SMARCA2 or SMARCA4 proteins, cells were labeled with 20 μL/well of anti SMARCA2 or SMACRA4 antibodies (Cell Signaling BRM #11966S 1:1000, Cell Signaling BRG #49360S 1:1000) diluted in Li-Cor Odyssey blocking buffer-PBS #927-40000, followed by overnight incubation at 4° C.
(§4) The next day, plates were washed 5×5 minutes with 50 μL/well of washing buffer to remove all the excess primary antibody and then 20 μL from a mixture of secondary antibody and fluorescent DNA specific dye (Goat anti rabbit 1:500 IRDye-800CW #92632211, and DRAQ5™ 1:2000-#ab108410) was added to each well. Plates were incubated for 1 hour at room temperature with gentle rocking. Cells were washed 5 times with 50 μL/well wash buffer, followed by one last wash with DI water, followed by 10 mins drying at 37° C. oven before scanning. Plates were scanned using Li-Cor Odyssey CLx imaging system to acquire integrated intensities at 700 nm and 800 nm. SMARCA signals were normalized to total cell count and then these normalized values were used to calculate the percent degradation relative to DMSO control and maximum inhibition. DC50s were calculated by using the GraphPad Prism4 program based on sigmoidal dose response equation ([Inhibitor] vs. normalized response−Variable slope).

[3] = target: SMARCA4 (Homo sapiens (Human), UniProt P51532); assay: In Cell Western SMARCA4 degradation in NCIH520 cells; assay type: cell-based; conditions: for DC50: read-out: DC50 (SM4_H520) SMARCA4 degradation potency
Sequence of SMARCA4 (P51532 whole entry): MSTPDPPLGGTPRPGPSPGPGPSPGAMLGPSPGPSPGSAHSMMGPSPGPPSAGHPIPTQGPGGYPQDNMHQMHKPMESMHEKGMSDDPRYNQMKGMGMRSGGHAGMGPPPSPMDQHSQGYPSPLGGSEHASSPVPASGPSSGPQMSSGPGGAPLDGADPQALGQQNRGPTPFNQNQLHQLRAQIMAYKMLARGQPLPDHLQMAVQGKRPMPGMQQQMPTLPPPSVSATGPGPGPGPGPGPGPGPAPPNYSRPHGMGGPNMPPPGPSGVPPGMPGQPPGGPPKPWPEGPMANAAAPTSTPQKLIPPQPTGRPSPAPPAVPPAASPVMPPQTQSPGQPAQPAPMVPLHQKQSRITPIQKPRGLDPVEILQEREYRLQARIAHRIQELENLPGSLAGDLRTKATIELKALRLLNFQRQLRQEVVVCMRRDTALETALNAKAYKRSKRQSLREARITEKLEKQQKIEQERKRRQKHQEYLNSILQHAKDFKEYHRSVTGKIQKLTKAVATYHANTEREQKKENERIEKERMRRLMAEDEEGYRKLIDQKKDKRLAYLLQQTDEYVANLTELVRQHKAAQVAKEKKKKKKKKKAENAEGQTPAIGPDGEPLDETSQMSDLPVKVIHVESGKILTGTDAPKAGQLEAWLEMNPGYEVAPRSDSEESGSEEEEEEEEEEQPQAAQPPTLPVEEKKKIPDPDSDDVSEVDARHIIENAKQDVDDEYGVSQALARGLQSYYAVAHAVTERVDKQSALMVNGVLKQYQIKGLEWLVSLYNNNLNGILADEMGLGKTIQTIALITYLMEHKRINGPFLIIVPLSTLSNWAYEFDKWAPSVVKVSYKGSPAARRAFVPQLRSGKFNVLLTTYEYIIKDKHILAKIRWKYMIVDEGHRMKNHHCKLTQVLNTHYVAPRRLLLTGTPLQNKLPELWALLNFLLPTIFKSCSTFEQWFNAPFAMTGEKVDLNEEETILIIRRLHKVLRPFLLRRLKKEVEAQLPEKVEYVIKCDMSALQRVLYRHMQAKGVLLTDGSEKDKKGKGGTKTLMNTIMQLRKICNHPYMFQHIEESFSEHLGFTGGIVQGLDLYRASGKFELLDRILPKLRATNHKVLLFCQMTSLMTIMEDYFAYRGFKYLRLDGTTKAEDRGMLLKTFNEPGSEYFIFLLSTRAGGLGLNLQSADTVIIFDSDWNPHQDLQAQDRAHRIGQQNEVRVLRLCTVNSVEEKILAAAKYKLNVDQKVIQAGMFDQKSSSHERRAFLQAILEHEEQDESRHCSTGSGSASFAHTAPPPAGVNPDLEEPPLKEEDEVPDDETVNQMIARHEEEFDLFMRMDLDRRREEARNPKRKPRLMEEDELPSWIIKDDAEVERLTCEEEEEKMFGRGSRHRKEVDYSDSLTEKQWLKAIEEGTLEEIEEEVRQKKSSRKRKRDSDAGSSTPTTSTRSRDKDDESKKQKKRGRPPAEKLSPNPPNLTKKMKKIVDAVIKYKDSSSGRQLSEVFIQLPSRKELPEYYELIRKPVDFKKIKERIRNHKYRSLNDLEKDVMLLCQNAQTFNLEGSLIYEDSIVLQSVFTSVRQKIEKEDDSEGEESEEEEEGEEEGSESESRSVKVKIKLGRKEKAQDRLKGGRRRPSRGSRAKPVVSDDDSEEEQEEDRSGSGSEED
Protocol: as §1, §2, §3, §4

Sequence of bromodomain of SMARCA2 protein (P51531 whole entry, looked up): as the sequence (P51531 whole entry) above
Sequence of bromodomain of SMARCA2 protein (P40337 whole entry, looked up): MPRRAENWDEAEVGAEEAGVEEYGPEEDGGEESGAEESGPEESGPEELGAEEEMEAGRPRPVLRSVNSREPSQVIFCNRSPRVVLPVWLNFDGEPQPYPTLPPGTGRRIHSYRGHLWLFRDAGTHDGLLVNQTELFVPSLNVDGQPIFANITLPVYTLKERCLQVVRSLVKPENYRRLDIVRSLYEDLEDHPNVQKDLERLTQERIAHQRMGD
Sequence of bromodomain of SMARCA2 protein (Q15370 whole entry partner, looked up): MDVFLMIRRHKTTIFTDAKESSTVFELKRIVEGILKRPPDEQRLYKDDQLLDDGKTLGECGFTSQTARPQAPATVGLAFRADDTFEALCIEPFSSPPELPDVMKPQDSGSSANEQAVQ
Sequence of bromodomain of SMARCA2 protein (Q15369 whole entry partner, looked up): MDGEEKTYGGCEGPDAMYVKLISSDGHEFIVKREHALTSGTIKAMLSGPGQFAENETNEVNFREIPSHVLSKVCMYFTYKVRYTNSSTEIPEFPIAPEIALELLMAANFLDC

| IC50 [1] | DC50 ([2]; H520 cells, overnight) | Dmax ([2]; NCI-H520, overnight, read-out: Dmax % (SM2_H520) maximum SMARCA2 degradation within the concentrations tested) | DC50 ([3]; H520 cells, overnight) | Dmax ([3]; NCI-H520, overnight, read-out: Dmax % (SM4_H520) maximum SMARCA4 degradation within the concentrations tested) | Dmax % (SM2_H520) maximum SMARCA2 degradation within the concentrations tested ([2]; H520 cells, overnight) | Dmax % (SM4_H520) maximum SMARCA4 degradation within the concentrations tested ([3]; H520 cells, overnight) | SMILES |
| --- | --- | --- | --- | --- | --- | --- | --- |
| 0.1 to 1 µM | 0.1 to 1 µM | > 75% | 1 to 10 µM | 50 to 75% | – | – | Cc1scnc1-c1ccc(CNC(=O)[C@@H]2C[C@@H](O)CN2C(=O)[C@@H](NC(=O)CN2CCN3c4cc(-c5ccccc5O)nnc4NCC3C2)C(C)(C)C)cc1 (single isomer, unassigned) [Example 2a] |
| < 0.1 µM | 1 to 10 µM | – | ≥ 10 µM | – | A (A = Dmax > 75%) | C (C = Dmax <= 50%) | Cc1scnc1-c1ccc(CNC(=O)[C@@H]2C[C@@H](O)CN2C(=O)[C@@H](NC(=O)CN2CCN3c4cc(-c5ccccc5O)nnc4NCC3C2)C(C)(C)C)cc1 (single isomer, unassigned) [Example 2b] |
| < 0.1 µM | 0.1 to 1 µM | – | 0.1 to 1 µM | – | – | – | Cc1ncsc1-c1ccc([C@H](C)NC(=O)[C@@H]2C[C@@H](O)CN2C(=O)[C@@H](NC(=O)CN2CCN3c4cc(-c5ccccc5O)nnc4NCC3C2)C(C)(C)C)cc1 (single isomer, unassigned) [Example 1b] |
